Measured values from patent publication US20240009265A1, “METHODS OF TREATMENT COMPRISING STABLE REDUCED GLUTATHIONE” (Blue Sky Innovation, LLC, priority 2020, published 2024).
Like-named read-outs stand apart in the source and are kept apart here.

What was measured:
[1] = tested on: subjects with chronic shingles and post-herpetic neuralgia (PHN); test: Topical reduced glutathione in a liposomal carrier in chronic shingles / post-herpetic neuralgia; type: in vivo, human
Text: Most the subjects at the time of the first visit reported significant depression and suicidal thoughts. Most subjects also reported giving up hope. […] The self-rated pain averaged a 7, but many subjects reported that when a break-out was occurring, the pain could spike to a 10. Videos and pictures were taken where and when appropriate with proper releases documented.

[2] = tested on: subject diagnosed with tardive dyskinesia (TD)
Experimental: Reduced glutathione was administered to the subject 5 times per day in a solution in the amount of about 18.25 mg per spray or about 91.25 mg per administration. The subject cleaned the area of application with a disinfectant wipe before topical application of the reduced glutathione. The topical rGSH was administered in 5 sprays of rGSH for a total dosage of about 91.25 mg. The administered rGSH dried for about 30 seconds before the subject was re-clothed. The facial movements and body movements of the subject were filmed once per week to analyze progression or loss of TD symptoms.
Topical rGSH was prescribed for 5 applications of 5 sprays each day to: (a) their right arm, (b) right jaw and masseter area, and (c) their spine. The total amount of administered rGSH was a total of 25 squirts per day (which is approximately 456 mg of rGSH via a Glutathione supplement) as applied by the nursing staff.

[3] = tested on: fibromyalgia syndrome (FMS) subjects; conditions: 43 subjects; rGSH with low copper diet and support product
Text: 43 fibromyalgia subjects underwent dietary changes supplements including: (a) a low copper diet, (b) a support product containing molybdenum, boron, zinc chelate, pyridoxine, N-Acetyl L-Cysteine, L-serine and L-glutamine, and (c) rGSH.

[4] = tested on: subject with partial and full thickness burn lesions
Experimental: The subject was treated with topical applications of rGSH. The subject was administered the rGSH 5-8 times a day over a 3-month period.
A subject had accidentally burned themself on an outdoor grill. The subject was treated with rGSH at 5-8 times a day with topical application. The subject was also treated with Cephalexin 500 mg in case of infection.

[5] = tested on: subjects with chemotherapy-induced peripheral neuropathy (CIPN)
Experimental: Subjects were treated with topical and oral rGSH in a natural liposomal carrier after initial consultation. Subjects began treatment prior to their second visit. Follow-up consultations with subjects occurred weekly to monthly according to symptoms and needs.
Procedures for measuring CIPN were based on interviews performed by a medical professional with subjects. The physician measured nerve sensitivity in some of the subjects using in-office medical instruments.

[6] = tested on: subject with diabetic peripheral neuropathy (DN); test: Topical and oral rGSH in diabetic peripheral neuropathy (case study); conditions: for outcome of diabetic neuropathy: person, 13 weeks of therapy
[7] = after 35 days of rGSH treatment

Nc1nc2c(ncn2COCCO)c(=O)[nH]1 [acyclovir, reference compound]
effect of earlier chronic medication on shingles/PHN pain ([1]; chronic doses before rGSH treatment): without substantial ameliorative effect

N[C@@H](CCC(=O)N[C@@H](CS)C(=O)NCC(=O)O)C(=O)O [rGSH, reduced glutathione]
outcome of TD ([2]; after 10 weeks of treatment): resolved completely | interval between involuntary jaw movements (masseter muscles) ([2]; after 21 days of topical rGSH, about 456 mg/day, before treatment about every 1-2 seconds): 4 to 5 s | interval between involuntary arm movements ([2]; after 21 days of topical rGSH, before treatment about every 1-2 seconds): 4 to 5 s | ambulation ([2]; after 42 days): no longer used assistance for walking up and down stairs | interval between facial and arm movements ([2]; after 42 days of topical rGSH): ~10 s | pain in shoulder, back and jaw ([2]; after 42 days, compared with the 21 day period): substantially decreased | involuntary facial or arm movement ([2]; after 70 days): no longer had involuntary facial or arm movement | pain ([2]; after 70 days): substantially free of pain | TD symptoms ([2]; after 70 days of rGSH administration): substantially free of symptoms | FMS symptoms [3]: substantial resolution | pain in fibromyalgia subjects [3]: substantially reduced pain | burn pain ([4]; 10 weeks after the burn): no longer had any pain | burn pain ([4]; after 21 days of rGSH treatment): tolerable | infection of the burn [4, 7]: No infection had occurred | state of the wound [4, 7]: dead skin and eschar were gone and new skin has started to epithelialize | state of the wound ([4]; after 49 days of treatment): nearly healed | burn pain within an hour of application ([4]; day of the burn): nearly dissipated | time until pain was subsiding after topical application ([4]; day of the burn): ≤ 30 min | course of burn healing ([4]; topical rGSH 5-8 times per day over a 3-month period): Healing commenced immediately with minimal pain, minimal scarring, no infection, and minimal drainage | time to nearly complete resolution of symptoms ([1]; one subject with shingles and PHN for about nine years): ≤ 34 min | share of subjects with nearly complete resolution only over a more extended period ([1]; over a hundred patients and volunteers with shingles): Less than 5% | extended period to nearly complete resolution ([1]; the subjects with slower response): 2 to 5 days | time to major resolution of symptoms ([5]; Patient 5-C): ≤ 3 days | pain in the feet ([5]; Patient 5-C, Day 63): no longer felt pain in the feet | CIPN symptoms ([5]; Patient 5-D, Day 31): substantial decrease in symptoms | feeling better since starting treatment ([5]; Patient 5-D, Day 38): about 70% | decrease in symptoms ([5]; Patient 5-D, Day 52): 80% | CIPN symptoms resolved, as reported by the subject ([5]; Subject 5-A, Day 12, only took rGSH orally): about 40% | CIPN symptoms ([5]; Subject 5-B, Day 7): improved symptoms | improvement of symptoms since using rGSH ([5]; Subject 5-B, Day 42): 50% | resolution of CIPN symptoms ([5]; Subject 5-B, Day 84): 70% | resolution of CIPN symptoms ([5]; Subject 5-B, Day 112): 70% | resolution of CIPN symptoms ([5]; Subject 5-B, Day 245, rGSH stopped for a few months): 70% | renal or liver functions ([6]; after 13 weeks of therapy): No effect | HBA1C ([6]; after 13 weeks of therapy, 10.0% before): 10.1% | neuropathy in the hands ([6]; oral and topical rGSH, weekly examination): complete resolution in their hands in the first few weeks | outcome of diabetic neuropathy [6]: resolved substantially | outcome of diabetic neuropathy ([6]; listed as stable rGSH): resolved | diabetic neuropathy in seven other subjects ([6]; seven other subjects treated with stable rGSH): complete resolution

C[C@]12CC[C@H]3[C@@H](CCC4=CC(=O)CC[C@@]43C)[C@@H]1CC[C@@H]2O [injectable testosterone, testosterone, reference compound]
effect on the subject's issues (insulin sensitivity, muscle strength, neuropathy) ([6]; modest dose, before rGSH treatment): did not have a substantial effect
